Test results as given in US9210928B2, “Plant development control composition” (Syngenta Crop Protection, LLC, priority 2008, dated 2015).
pIC50, pKi: −log10 of the molar value. “Also recorded” adds a separate entry of the source.

Tests used:
LeNCED1 = molecular target: T1, LeNCED1 (Solanum lycopersicum, UniProt O24023); assay: In vitro NCED enzyme assay (recombinant LeNCED1 cell-free extract, HPLC, 9′-cis-neoxanthin substrate); type: biochemical, tomato
T1 construct: made in house; host or cells: E. coli Rosetta (DE3); crude cell-free extract
T1 sequence (O24023 17-605): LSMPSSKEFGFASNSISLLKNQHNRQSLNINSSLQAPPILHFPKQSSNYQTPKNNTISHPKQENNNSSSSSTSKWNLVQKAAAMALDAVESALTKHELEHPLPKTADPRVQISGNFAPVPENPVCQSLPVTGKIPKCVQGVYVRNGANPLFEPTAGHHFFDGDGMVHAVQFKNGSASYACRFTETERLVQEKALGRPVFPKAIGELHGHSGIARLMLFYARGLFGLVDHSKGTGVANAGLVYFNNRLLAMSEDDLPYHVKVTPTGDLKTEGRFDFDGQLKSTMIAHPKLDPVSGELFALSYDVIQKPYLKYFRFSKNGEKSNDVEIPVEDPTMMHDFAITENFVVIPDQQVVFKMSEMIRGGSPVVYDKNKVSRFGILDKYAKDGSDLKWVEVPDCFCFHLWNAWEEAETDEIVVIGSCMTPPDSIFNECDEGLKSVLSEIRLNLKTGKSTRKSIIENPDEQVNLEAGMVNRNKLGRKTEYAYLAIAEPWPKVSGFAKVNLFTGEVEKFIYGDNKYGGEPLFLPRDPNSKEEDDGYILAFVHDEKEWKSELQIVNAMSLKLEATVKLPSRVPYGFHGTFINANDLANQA
Protocol: In vitro NCED enzyme assay—We over-expressed LeNCED1 in E. coli, as an N-terminal His6-fusion protein (supplemental methods). Cell-free extract containing recombinant LeNCED1 was prepared in 100 mM bis-tris buffer (pH 6.7). 15 μl extract was pre-activated by addition of iron(II) sulphate (20 mM, 1 μl) and ascorbic acid (20 mM, 1 μl) on ice for 2 min, prior to use. This aliquot of enzyme was then added to an assay (150 μl total volume) containing 100 mM bis-tris buffer (pH 6.7), 0.05% v/v Triton X-100, 1.0 mg/ml catalase, and 3 μg 9′-cis-neoxanthin. The 9′-cis-neoxanthin substrate was prepared as described in supplemental methods. The enzyme assay was incubated for 15 min in the dark at 20° C. Water (700 μl) was then added, and the products extracted with ethyl acetate (3×1 ml). The organic solvent was removed at reduced pressure, the residue was dissolved in methanol (200 μl), and then 100 μl was injected onto a Phenomenex C18 reverse phase HPLC column, and a gradient of 5-10% methanol in acetonitrile/0.05% triethylamine was applied at 0.5 ml/min over 20 min, detecting at 440 nm. NCED inhibition assays contained 1-100 μM inhibitor; inhibition was calculated from the product formation after 15 min, compared to a control assay with no inhibitor present.
(§1) For the production of cell-free extracts of LeCCD1a and LeNCED1, cultures were grown to an OD of 0.6 at 37° C., then isopropyl β-D-1-thiogalactopyranoside (IPTG) was added to 0.2 mM and the cultures grown overnight at 20° C. The cells (200 ml cultures) were harvested by centrifugation (5000 rpm, 10 min) and the pellet re-suspended in 4 ml PBS, 0.1% Triton-X 100. Lysozyme was added to a final concentration of 25 μg ml^−1 and the solution incubated at room temperature for 15 min before sonication (3×30 s at 18Ω) on ice. The lysate was then centrifuged (13000 rpm, 15 min, 4° C.) and the supernatant used for the assay.
(§2) Specificity of inhibition in vitro for tomato genes LeNCED1 and LeCCD1a—In order to screen the inhibitors against enzymes which cleave carotenoids at the 9,10 position, we used the recombinant tomato LeCCD1a protein (44), because this type of enzyme can be studied using an in vitro colourimetric assay with β-apo-8′-carotenal as substrate (37). To establish the specificity of the inhibitors, they were also tested against the tomato LeNCED1 recombinant protein which cleaves 9-cis carotenoids at the 11,12 position (45). For this enzyme, the cleavage reaction was monitored by C18 reverse phase HPLC, using 9′-cis-neoxanthin as substrate.

[1] = system: abscisic acid production in planta; details: 50-100 μM concentration; cited from earlier work
LeCCD1a = LeCCD1a (Solanum lycopersicum, UniProt Q6E4P5); assay: In vitro LeCCD1a enzyme assay (recombinant cell-free extract, colourimetric, apo-8′-carotenal substrate); type: biochemical, tomato (Solanum lycopersicum); details: for pIC50: E. coli cell extract with recombinant CCD, read-out: LeCCD1a (9,10/9′,10′) IC50; for inhibition at 100 µM: read-out: LeCCD1a (9,10/9′,10′) Inhibition @ 100 μM (%)
LeCCD1a, sequence (Q6E4P5 1-545): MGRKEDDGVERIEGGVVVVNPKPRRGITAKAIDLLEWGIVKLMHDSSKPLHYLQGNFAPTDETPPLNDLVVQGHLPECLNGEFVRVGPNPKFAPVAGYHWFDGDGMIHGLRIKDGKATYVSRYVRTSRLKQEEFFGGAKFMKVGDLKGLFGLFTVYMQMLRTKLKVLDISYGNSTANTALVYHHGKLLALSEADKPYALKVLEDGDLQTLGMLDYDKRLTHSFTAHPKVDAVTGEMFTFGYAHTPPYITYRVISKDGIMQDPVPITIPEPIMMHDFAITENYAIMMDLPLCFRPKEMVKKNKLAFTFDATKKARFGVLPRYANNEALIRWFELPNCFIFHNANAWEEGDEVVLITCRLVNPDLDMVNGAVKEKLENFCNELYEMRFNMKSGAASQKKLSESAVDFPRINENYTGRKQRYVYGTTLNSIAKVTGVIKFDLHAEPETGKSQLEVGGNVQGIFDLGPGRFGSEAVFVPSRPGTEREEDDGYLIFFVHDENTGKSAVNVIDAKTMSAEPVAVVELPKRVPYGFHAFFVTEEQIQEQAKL
Protocol: In vitro LeCCD1a enzyme assay—We over-expressed LeCCD1a in E. coli, as a GST-fusion protein (supplemental methods). The in vitro assay of LeCCD1a was based on reported methods (37), and was carried out in a 200 μl total volume in a 96-well microtitre plate, with the signal detected at 485 nm. To prepare substrate solution for each assay, 5 μl of 4% (w/v in ethanol) apo-8′-carotenal (Sigma) was mixed with 25 μl of 4% (w/v in ethanol) β-octylglucoside (Sigma), the ethanol was then evaporated under nitrogen, and the residue dissolved in 150 μl PBS buffer containing 10 mM sodium ascorbate by incubation at 20° C. for 30 min. 50 μl of cell-free extract containing recombinant LeCCD1a was added, and the reactions monitored over 30 min at 20° C.
as §1, §2

recombinant NCED = details: read-out: Ki, reversible competitive inhibitor of recombinant NCED; cited from earlier work
[2] = system: excised Arabidopsis nodes; assay: Axillary bud outgrowth assay in Arabidopsis stem sections; type: in vivo; details: 100 μM inhibitor, 1 μM NAA; Col-0
Protocol: Axillary bud outgrowth assay in Arabidopsis stein sections—The assays were performed essentially as described (40) with the following modifications. Small Petri dishes (50 mm diameter, 20 mm depth) were filled with 10 ml of ATS (39) supplemented with 1% agar and 1% sucrose. Inhibitors and α-naphthalene acetic acid (NAA) were added to the agar before pouring to give 100 μM and 1 μM, respectively. Thus, when the central strip was cut out of the agar, both the apical and basal media contained both NAA and inhibitor. Any nodes in which the apical end had curled out of the media or which bud length was less than 2 mm at the end of the experiment were discounted. Measurement of the shoot length was performed every 24 hours. For each assay a logistic curve was fitted using Genstat (10th edition, VSN international) with the fitcurve directive and the lag phase was calculated by extrapolating the linear part of the curve and the initial plateau (see supplementary methods). The x value of where these two lines intersected represented the lag phase.
A logistic curve, y=A+C/(1+e^−B(t−m)), was fitted to the data for each shoot using GenStat (10th edition). The lag phase was then calculated using the equation m−(2/B) which effectively gave the t value (time) of the intercept of the two extrapolated lines from the linear part of the curve and the initial plateau.
Stimulation of shoot branching in Arabidopsis stem sections by application of inhibitor—Auxin inhibits the outgrowth of axillary buds in wild-type Arabidopsis plants. In the AtCCD7 and AtCCD8 null mutants (max3 and max4, respectively) the response to auxin is reduced, presumably due to a block in formation of an apocarotenoid hormone (recently shown (17,18) to be strigolactone or a related compound) that suppresses branching (19), and axillary buds extend earlier, leading to formation of side branches. An in vitro assay was previously developed in which the growth of axillary buds from isolated sections of Arabidopsis stem was used to assess max mutants (40). […]

whole Arabidopsis plants = assay: Shoot branching in whole Arabidopsis plants grown in agar; type: in vivo; details: for unintended effects on whole Arabidopsis plants: applied to whole plants; for branching phenotype of whole plants (in words): plants grown under sterile conditions in agar
Protocol: Branching phenotypes of Arabidopsis plants grown in agar media for 45 days supplemented with inhibitor D6. Images are shown: (a) Col-0 (WT) without inhibitor; (b) max3-9 mutant without inhibitor; (c) Col-0 with 100 μM D6. The numbers (d) of rosette branches were quantified. Error bars represent standard error of the mean, n=6 to 12.
Stimulation of shoot branching in whole Arabidopsis plants—Inhibitors were also applied to Arabidopsis whole plants grown under sterile conditions in agar. […] Inhibitor treated plants were intermediate (mean of approximately 2 branches) and so partially mimicked max3-9 (FIG. 6d).

[3] = system: wild-type tomato seeds (cv. Ailsa Craig); assay: Germination assay, wild-type tomato seed; type: in vivo, Solanum lycopersicum; details: dose-dependent; FIG. 9
Text: (§3) Seeds used were “wild-type” tomato (Solanum lycopersicum cv. Ailsa craig near-isogenic line containing the Tm2^a tobacco mosaic virus resistance gene). In addition, we used transgenic tomato seed (Solanum lycopersicum cv. Ailsa craig) transformed with a construct designed to over-express the gene LeNCED1, encoding 9-cis-epoxycarotenoid dioxygenase. These transgenic seeds are known as D9 [Thompson, A. J., et al., Ectopic expression of a tomato 9-cis-epoxycarotenoid dioxygenase gene causes over-production of abscisic acid. Plant Journal, 2000. 23(3): p. […]], but were later renamed as SP12 [Thompson, A. J., et al., Regulation and manipulation of ABA biosynthesis in roots. Plant Cell and Environment, 2007. 30: p. […] Plant Journal, 2000. 23(3): p. 363-74.5].
Each assay consisted of a 10 cm vented Petri dish containing an 8.5 cm diameter circle of Whatman Grade 1 filter paper (Whatman International Ltd, Maidstone, England) soaked in 1 ml of test solution. Seeds were surface sterilized with 30% household bleach for 30 mins, rinsed in distilled water, and then 20 seeds were placed on the filter paper in each Petri dish. The Petri dishes were incubated at high relative humidity (>95%) at 25° C. in the dark. Seed germination, defined as visible emergence of the radicle, was scored daily. Replicate plates were used for each chemical treatment. […]

SP12 tomato seeds = assay: Germination assay, SP12 tomato seed over-expressing LeNCED1; type: in vivo, Solanum lycopersicum; details: for stimulation of germination of SP12 seeds: compounds D1 to D7 tested, 1% DMSO
Text: as §3
Each assay consisted of a 10 cm vented Petri dish containing an 8.5 cm diameter circle of Whatman Grade 1 filter paper (Whatman International Ltd, Maidstone, England) soaked in 1 ml of test solution. Seeds were surface sterilized with 30% household bleach for 30 mins, rinsed in distilled water, and then 20 seeds were placed on the filter paper in each Petri dish. The Petri dishes were incubated at high relative humidity (>95%) at 25° C. in the dark. Seed germination, defined as visible emergence of the radicle, was scored daily. Replicate plates were used for each chemical treatment.
Hydroxamic acids were dissolved in dimethylsulphoxide (DMSO), and aqueous test solutions were prepared such that the final concentration of DMSO was 1% v/v. Control solution consisted of 1% v/v DMSO in water. Norflurazon was prepared as a stock solution at 20 mg ml^−1 in ethanol, and then diluted with water to a final concentration of 5 mg l^−1, with ethanol present at 0.025% v/v.
Transgenic SP12 tomato seeds we created by the inventors; these seeds have high levels of ABA and increased dormancy [Thompson, A. J., et al., Ectopic expression of a tomato 9-cis-epoxycarotenoid dioxygenase gene causes over-production of abscisic acid. Plant Journal, 2000. 23(3): p. 363-74 and Thompson, A. J., et al., Regulation and manipulation of ABA biosynthesis in roots. Plant Cell and Environment, 2007. 30: p. 67-78].

AtNCED3 = AtNCED3 (Arabidopsis thaliana, UniProt Q9LRR7); details: 100 μM; cited from earlier work
AtNCED3, sequence (Q9LRR7 41-599): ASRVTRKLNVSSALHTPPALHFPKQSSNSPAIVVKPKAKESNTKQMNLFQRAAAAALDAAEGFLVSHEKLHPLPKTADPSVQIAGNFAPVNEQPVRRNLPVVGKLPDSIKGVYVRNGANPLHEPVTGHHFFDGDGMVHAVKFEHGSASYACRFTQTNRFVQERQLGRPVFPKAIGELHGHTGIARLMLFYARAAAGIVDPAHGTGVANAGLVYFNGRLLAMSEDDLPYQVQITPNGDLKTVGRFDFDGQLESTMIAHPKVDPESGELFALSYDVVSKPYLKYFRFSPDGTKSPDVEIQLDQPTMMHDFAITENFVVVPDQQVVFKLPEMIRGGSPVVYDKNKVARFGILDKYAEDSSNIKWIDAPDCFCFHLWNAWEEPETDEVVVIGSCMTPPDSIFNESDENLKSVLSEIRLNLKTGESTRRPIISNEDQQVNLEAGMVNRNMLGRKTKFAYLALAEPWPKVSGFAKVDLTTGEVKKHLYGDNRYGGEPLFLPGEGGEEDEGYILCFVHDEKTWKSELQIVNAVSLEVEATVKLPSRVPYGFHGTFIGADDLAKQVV

AtCCD1 = AtCCD1 (Arabidopsis thaliana, UniProt O65572); details: 100 μM; cited from earlier work
AtCCD1, sequence (O65572 whole entry): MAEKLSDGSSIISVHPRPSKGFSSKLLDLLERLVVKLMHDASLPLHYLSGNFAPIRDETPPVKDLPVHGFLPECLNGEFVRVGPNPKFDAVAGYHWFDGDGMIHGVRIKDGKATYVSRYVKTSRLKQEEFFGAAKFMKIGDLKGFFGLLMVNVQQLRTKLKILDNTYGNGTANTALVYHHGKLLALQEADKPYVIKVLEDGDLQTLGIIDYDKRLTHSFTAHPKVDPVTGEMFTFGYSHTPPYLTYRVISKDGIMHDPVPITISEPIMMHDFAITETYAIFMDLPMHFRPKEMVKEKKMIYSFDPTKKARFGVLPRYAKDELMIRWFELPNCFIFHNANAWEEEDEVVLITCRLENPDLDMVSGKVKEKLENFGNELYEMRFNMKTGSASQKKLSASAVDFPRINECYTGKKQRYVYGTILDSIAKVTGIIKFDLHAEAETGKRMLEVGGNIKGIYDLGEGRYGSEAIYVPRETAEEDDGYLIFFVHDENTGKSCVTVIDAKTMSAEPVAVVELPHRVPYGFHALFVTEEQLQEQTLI

Molecule	pIC50 (LeCCD1a)	pKi (recombinant NCED)	unintended effects on whole Arabidopsis plants (whole Arabidopsis plants)	branching phenotype of whole plants (in words) (whole Arabidopsis plants)	inhibition at 100 µM (LeCCD1a) [%]	inhibition of LeNCED1 in vitro (in words) (LeNCED1)	stimulation of germination of SP12 seeds (SP12 tomato seeds)	other results
COC(=O)CN(C/C=C/c1ccc(OC)c(OC)c1)Cc1ccc(F)cc1 [Abamine, reference compound]	3.68	4.41	–	–	–	–	–	LeNCED1 (11,12) Inhibition @ 100 μM (%) (LeNCED1; 100 μM inhibitor, E. coli cell extract with recombinant CCD): 20%; abscisic acid production in planta [1]: inhibited abscisic acid production in planta
O=C(Cc1ccc(O)cc1)N(O)Cc1ccccc1 [Compound D1, N-benzyl-4-hydroxyphenylacetyl hydroxamic acid]	6.05 to 6.10	–	grew normally	without an increase in branching	> 95	–	–	advancement of the timing of bud outgrowth in wild-type [2]: one; inhibition of LeCCD1 in vitro (in words) (LeCCD1a): good inhibitors of the 9,10 enzymes in vitro
COc1ccc(CC(=O)N(O)Cc2ccc(F)cc2)cc1 [Compound D4, N-(4-fluorobenzyl)-4-methoxyphenylacetyl hydroxamic acid]	–	–	without negative unintended effects on whole plants	bushy appearance	> 95	greatest inhibition of NCED in vitro	most active compounds in stimulating germination; also recorded: promoted germination of SP12 seeds	germination of wild-type tomato seeds [3]: germination of these seeds was also promoted; plant development following application to seeds (SP12 tomato seeds; 2 mM): Some delay in development; plant development following application to wild-type or SP12 seeds (SP12 tomato seeds; concentrations <1 mM): Normal plant development
O=C(Cc1ccc2c(c1)OCO2)N(O)Cc1ccc(F)cc1 [Compound D7, N-(4-fluorobenzyl)-3,4-methylenoxyphenylacetyl hydroxamic acid]	–	–	–	–	> 95	greatest inhibition of NCED in vitro	most active compounds in stimulating germination	–
abamineSG	–	4.73	–	–	–	–	–	inhibition of AtNCED3 (AtNCED3): 78%; inhibition of AtCCD1 (AtCCD1): ≤ 20%
